Results on one compound are retold here after patent publication US20260183301A1, “TREATING DISEASES AND DISORDERS WITH IRAK4-MODIFYING COMPOUNDS” (Curis, Inc., priority 2022, published 2026).

“Also recorded” adds a separate entry of the source.

For data set [1], the system named is NF-kB p-p50 S337. The experiment in a line: Western blot of NF-kB p-p50 S337 in OCL-LY10 cells. The data set is classed as cell-based. Conditions: 3 μM and 10 μM, 48 h, vs DMSO. As to the method:
(§1) At 48 h post-treatment, cell lysates were obtained. Protein sample concentration was quantified and equal amount 20 μg of whole protein extract was loaded in each well of SDS-polyacrylamide gel. Cell extracts were separated by 10% SDS-PAGE, transferred to nitrocellulose membrane, and probed as indicated. The following antibodies were used for immunoblot analysis: NF-kB p-p50 S337 (Santa Cruz Biotechnology) and b-actin (Cell Signaling Technology).

Data set [2] can be described thus: Phase 1 study in AML or high risk MDS: safety (DLT). The data set is classed as in vivo. As to the method:
(§2) This study will be conducted in 2 parts: an initial dose escalation and dose expansion phase. […] Three patients with AML or MDS will be enrolled at the designated dose. If none of the first 3 patients experience a DLT during the first cycle, patients may be enrolled into the next higher dose level of 300 mg bid until a safe and effective RP2D is established.
(§3) This study is expected to enroll approximately 18 patients to establish the initial RP2D.
(§4) The major study inclusion and exclusion criteria are as follows: Relapsed or refractory AML (primary or secondary, including treatment-related) after at least one standard treatment (including chemotherapy, re-induction therapy or stem cell transplantation) based on the assessment of the investigator or high/very high risk relapsed/refractory MDS (IPSS—R criteria), following at least 6 cycles of hypomethylating agents [HMA] or evidence of early progression.

Data set [3] is described as follows: Oral pharmacokinetics in humans. It counts as in vivo, human.
Experimental: (§5) Seven dosing cohorts included 50 and 100 mg QD, and 50, 100, 200, 300, or 400 mg BID of daily continuous oral monotherapy in 21-Day cycles. Objective included safety and tolerance (primary), pk/pd and early efficacy (secondary), and biomarker correlations (exploratory). 31 patients with resistant or refractory, advanced NHL have been enrolled.
Another data set deals with NF-kappaB p-p50. Kind of data set: IHC of NF-kappaB p-p50 in paired tumor biopsies of NHL patients before and after treatment. The data set is classed as in vivo, human. Conditions: paired tumor biopsy samples (3 cases) before and after treatment. As to the method: Formalin-fixed, paraffin-embedded sections of human tonsil and lymphoma were used. Tissue sections (5 μm) were deparaffinized, and antigen retrieval was carried out at 90-100° C. in citrate buffer for 10-40 min. The sections were incubated in 1% […] for 10 minutes to quench endogenous tissue peroxidase. Tissue sections were then incubated with primary NF-κB p-p50-specific antibody (at 1:300 dilution) for approximately 16 h at 4° C. The primary NF-κB p-p50-specific antibody used NF-κB p-p50 (S337), sc-271908 from Santa Cruz Biotechnology.
The slides were stained using a standard EnVision+System-HRP kit (DAKO, Carpinteria, CA) according to the manufacture's protocol. Immunohistochemical reactions were developed with diaminobenzidine as the chromogenic peroxidase substrate, and slides were counterstained with hematoxylin. Negative control samples included replacement of the primary antibody with nonimmune IgG1 (Dako).

For another data set, the system named is cytokine. The experiment in a line: Pharmacodynamic cytokine changes in Phase I NHL patients. It counts as in vivo, human.
The subject of another data set is THP-1 xerographs. The experiment in a line: THP-1 leukemic xerographs: disease burden. The data set is classed as in vivo. Conditions: 6 weeks of treatment at 12.5 mg/kg.
Another data set deals with AML or high risk MDS. Kind of data set: Phase 1 study in AML or high risk MDS: marrow response. The data set is classed as in vivo, human. As to the method: as §2, §3, §4
Data set [4] deals with Waldenstrom's macroglobulinemia (WM). The experiment in a line: Phase 1 dose-escalation study, WM patient case: serum IgM, m-protein and response. It counts as in vivo, human. From the text:
The patient remained asymptomatic for over 4 years with a slow increase in m-protein and IgM during that time. By mid-2017 they started to experience increased fatigue. […] There was no evidence of CXCR4 genomic alteration. […] Several options were discussed including clinical trials and standard of care Bruton's tyrosine kinase inhibitor (BTKi) therapy.
Quantitative immunoglobulins and serum protein electrophoresis were obtained each cycle to determine response to treatment (FIG. 1).
The patient initiated treatment at the first dose level, 50 mg. […] Using a standard 3+3 design the subsequent dose level, 100 mg po BID, was cleared per protocol. […] They reported a significant improvement in their quality of life with resolution of fatigue and returned to a rigorous daily exercise program that they had been unable to perform for the last 2 years due to WM-related symptoms. […] Based on evolving safety data at higher dose levels, the patient was escalated to […] starting with cycle 20 in 1/2020.

The subject of data set [5] is in vivo models of non-Hodgkin's lymphoma. Kind of data set: In vivo models of non-Hodgkin's lymphoma: tumor growth. Conditions: FIGS. 22A-C, each model.
The test system of data set [6] is resistant or refractory, advanced NHL. Kind of data set: Phase I dose escalation trial of oral monotherapy in NHL: tumor reduction. The data set is classed as in vivo, human. Conditions: all doses.
Experimental: as §5
For data set [7], the system named is NF-kB p-p50 S337. The experiment in a line: Western blot of NF-kB p-p50 S337 in TF-1 (AML) cells. The data set is classed as cell-based. Conditions: 3 μM and 10 μM, 48 h, vs DMSO. As to the method:
as §1

As for `Cc1cc(-c2nc(C(=O)Nc3cc4oc(N5CCOCC5)nc4nc3N3CC[C@@H](O)C3)co2)ccn1` [Compound 1, emavusertib], the “expression of NF-kB p-p50 S337” value in the data set on NF-kB p-p50 S337 [1] and in the data set with NF-kB p-p50 S337 [7] was “downregulated” in each case. Besides, the DLT entry in data set [2] (Cohort 1, 200 mg BID, 3 patients with hr-MDS, 1st cycle) is “No DLT”; in [2] (Cohort 2, 300 mg BID, first 3 patients), “No DLT”. For the same compound, in data set [2] (Cohort 1, 200 mg BID, C2), the “dose reduction for Gr. 3 dizziness” value stood at 1. Further, the accumulation result is reported as “Minimal to no accumulation” in data set [3] (multiple daily single dose administration) and “Moderate accumulation” in data set [3] (steady state, multiple twice daily dose administration). Besides, the absorption result in [3] (oral administration) is “rapidly absorbed”. The exposure versus dose entry in [3] (oral administration) is “dose-proportional increase in exposure”. For the same compound, in data set [3] (oral administration, post dose), the “time of maximum plasma concentrations” value was in the range of 0.5 to 8 h. In the data set with NF-kappaB p-p50, the “NF-kappaB p-p50 expression in tumors” value was “significant downregulation; also recorded: inhibited”. In the data set on cytokine, the “pharmacodynamic changes in cytokines” value is on record as “cytokine reductions”. The disease burden result in the data set with THP-1 xerographs is “decreased the disease burden”. In addition, the marrow blasts entry in the data set on AML or high risk MDS (all initial patients, cycle 1) is “marrow blast reduction”. For the same compound, the marrow complete responses result with AML or high risk MDS (initial patients, cycle 1) is given as “several marrow complete responses”. Also, in the data set on AML or high risk MDS (relapsed/refractory AML and high-risk MDS, ongoing Phase 1 study), the clinical activity entry is on record as “clinical activity”. Besides, the “fatigue (baseline symptom)” value in [4] (WM patient, 200 mg po BID, by summer of 2019) is “completely resolved”. Further, the “dose dependence of response / tumor burden” value in data set [4] (human patient with intra-patient dose escalation) is on record as “shrinking in a dose-dependent manner; also recorded: dose/response relationship; also recorded: dose-dependent objective response”. In addition, the tumor growth result in data set [5] is listed as “reduced tumor growth”. Further, the “evaluable patients with overall tumor burden decreases of ≥20% from baseline” value in [6] is “Eight of 28”.
